The record followed here is patent US20120283403A1, “Phenylboronic Acid Monomer and Phenylboronic Acid Polymer” (National Institute for Materials Science, priority 2010, published 2012).

The text on the data set:
Subsequently, for the sample 1, the comparative sample 1 and the comparative sample 2, the relationships between glucose concentrations and apparent changes in pKa were derived by acid-base titration under various glucose concentration conditions (0 g/L, 1 g/L, 3 g/L, 5 g/L, and 10 g/L).

The structures appear in SMILES notation.

Turning to `C=CC(=O)NCCNC(=O)c1ccc(B(O)O)cc1F` [sample 1, 4-(2-acrylamideethylcarbamoyl)-3-fulorophenylboronic acid], the “apparent pKa” value (all glucose concentrations (0, 1, 3, 5 and 10 g/L), FIG. 2, samples a1 to a5) is below 7.4. Moreover, the “degrees of decrease in pKa according to the increase in the concentrations of glucose” value (compared with comparative samples 1 and 2, glucose 0 to 10 g/L) was “excellent”.
